Experiments:
Akt1 = target: T1, Akt1 (Homo sapiens, UniProt P31749); test: Akt kinase assay (HTRF, GSK-derived biotinylated peptide substrate); format: biochemical; conditions: activated Akt1, HTRF, 120 minute preincubation; read-out: IC50 against Akt1
T1 construct: a middle T tag was added to the 5′ end of the full length Akt1 gene; middle T tag (EYMPME) (N); biotin tag (from pS2neo vector); made in house; host or cells: Drosophila S2 cells
Procedure: (§1) Activated Akt isoforms were assayed utilizing a GSK-derived biotinylated peptide substrate. The extent of peptide phosphorylation was determined by Homogeneous Time Resolved Fluorescence (HTRF) using a europium-coupled monoclonal antibody specific for the phosphopeptide in combination with a streptavidin-linked allophycocyanin (SA-APC) fluorophore which will bind to the biotin moiety on the peptide. When the europium and APC are in proximity (i.e. bound to the same phosphopeptide molecule), a non-radiative energy transfer takes place from the […] to the APC, followed by emission of light from APC at 665 nm.
(§2) Materials required for the assay: • A. 100 nM activated Akt1 or 225 nM activated Akt2 • B. 10×R for AKT assay buffer (500 mM Hepes pH 7.5, 1% PEG m.w. 15000-20000, 1 mM EDTA, 1 mM EGTA, 1% BSA, 20 mM β glycerol phosphate) • C. 1 M KCl • D. 50% glycerol • E. 250 mM MgCl2 • F. 50 mM ATP pH 7.0 • G. 0.2 M DTT • H. 1 mM GSK3α biotinylated peptide (SynPep biotin-[…]-COOH) • I. Stop Buffer: 40 mM EDTA (pH8.4) • J. 8.5 uM SA-APC (PerkinElmer #CR130-100, lot No. N01001K-AAG16) • K. 4.9 uM Eu-W 1024 labeled phos-GSK3 monoclonal antibody (PerkinElmer #CUSM63178) • L. Detection Reagent: 15 mM Tris-HCl ([…]), 0.1% Tween20, 250 nM SA-APC (PerkinElmer #CR130-100, lot No. N01001K-AAG16), 0.735 nM Eu-W1024 labeled phos-GSK3 monoclonal antibody (PerkinElmer #CUSM63178) The reaction was assembled using the following protocol: • A. Add 0.5 uL inhibitor to test wells or 0.5 uL DMSO to no drug control wells. • B. Prepare Enzyme diluent: 18000 uL 10×R for AKT assay buffer, 9600 uL 250 mM MgCl2, 12000 uL 1 M KCl, 18000 uL 50% Glycerol, 900 uL 0.2 M DTT, 121500 uL MilliQ water. • C. Prepare Enzyme mixture (E-Mix): To […] Enzyme diluent, added 4.3 uL of a 100 nM activated AKT1, 1.9 uL of a 225 nM stock of activated Akt2 so concentration AKT1 and Akt2 were 6 pM. • D. 10 uL of Stop Buffer was added manually to wells acting as Background control wells. Initiate preincubation reactions by adding 15 uL of E-Mix using Multidrop 384. Spin down assay plates after the addition of E-Mix. • E. Prepare ATP/Peptide working solution (S-Mix): 10000 uL 10×R for AKT assay buffer, 5000 uL 50% glycerol, 250 uL 0.2M DTT, 600 uL 50 mM ATP, 100 uL 1 mM GSK3 peptide, 34050 uL MilliQ water. • F. To wells where preincubation is being conducted, after the 120 minute preincubation, initiate kinase reactions by adding 5 uL S-Mix using FRD. […] Let kinase assays run for 60 minutes at 25° C. • G. Stop kinase reactions by adding 10 uL Stop Buffer, using Multidrop 384, to wells other than background wells. • H. 10 uL of Detection Reagent was added using FRD and stopped assays were stored at room temperature for more than 2 hours. • I. The plates were read on PHERAstar.

Akt2 = target: T2, Akt2 (Homo sapiens, UniProt P31751); test: as above; format: biochemical; conditions: activated Akt2, HTRF, 120 minute preincubation; read-out: IC50 against Akt2
T2 construct: a middle T tag was added to the 5′ end of the full length Akt2 using the PCR primer; middle T tag (EYMPME) (N); biotin tag (from pS2neo vector); made in house; host or cells: Drosophila S2 cells
T2 sequence (P31751 whole entry): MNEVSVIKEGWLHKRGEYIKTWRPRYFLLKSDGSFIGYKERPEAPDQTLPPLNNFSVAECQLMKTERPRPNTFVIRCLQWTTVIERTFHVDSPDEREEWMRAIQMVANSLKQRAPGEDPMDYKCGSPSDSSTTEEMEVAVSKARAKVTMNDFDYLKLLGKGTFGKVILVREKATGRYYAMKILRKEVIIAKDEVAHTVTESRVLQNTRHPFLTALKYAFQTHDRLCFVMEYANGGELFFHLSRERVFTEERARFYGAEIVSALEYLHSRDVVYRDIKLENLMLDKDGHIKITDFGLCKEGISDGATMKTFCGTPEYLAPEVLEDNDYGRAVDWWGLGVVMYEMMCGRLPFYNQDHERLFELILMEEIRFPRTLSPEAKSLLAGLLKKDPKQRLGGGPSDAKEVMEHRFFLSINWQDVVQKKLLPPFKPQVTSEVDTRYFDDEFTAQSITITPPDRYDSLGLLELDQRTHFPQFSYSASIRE
Procedure: as §1, §2

T1 sequence (P31749 whole entry): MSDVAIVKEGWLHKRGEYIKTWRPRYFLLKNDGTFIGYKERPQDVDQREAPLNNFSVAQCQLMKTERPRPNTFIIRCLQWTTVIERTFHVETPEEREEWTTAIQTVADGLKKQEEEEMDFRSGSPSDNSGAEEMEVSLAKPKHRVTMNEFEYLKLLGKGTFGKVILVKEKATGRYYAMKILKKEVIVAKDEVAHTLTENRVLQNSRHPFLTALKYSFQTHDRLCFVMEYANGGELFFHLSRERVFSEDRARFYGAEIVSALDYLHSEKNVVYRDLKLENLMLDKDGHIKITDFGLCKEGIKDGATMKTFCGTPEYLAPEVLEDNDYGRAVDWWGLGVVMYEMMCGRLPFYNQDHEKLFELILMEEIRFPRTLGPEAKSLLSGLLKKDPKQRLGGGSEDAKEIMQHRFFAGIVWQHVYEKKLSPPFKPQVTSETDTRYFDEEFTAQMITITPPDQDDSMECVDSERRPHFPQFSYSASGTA

SMILES | IC50 (Akt1) [nM] | IC50 (Akt2) [nM]
COc1ccc(-c2nc(-c3ccc([C@]4(N)C[C@](C)(O)C4)cc3)c(-c3ccccc3)s2)cn1 [Compound 2-1, (1R,3R)-3-amino-3-(4-(2-(6-methoxypyridin-3-yl)-5-phenylthiazol-4-yl)phenyl)-1-methylcyclobutanol] | 91 | 26
COc1cncc(-c2nc(-c3ccc([C@]4(N)C[C@](C)(O)C4)cc3)c(-c3ccccc3)s2)c1 [Compound 3-1, (1R,3R)-3-amino-3-(4-(2-(5-methoxypyridin-3-yl)-5-phenylthiazol-4-yl)phenyl)-1-methylcyclobutanol] | 40 | 25

Reference: patent US20120028918A1, “PHARMACEUTICAL COMPOSITIONS AND METHODS OF MAKING SAME” (GLAXO WELLCOME MANUFACTURING PTE LTD., priority 2010, published 2012)
